Measured values reported in patent US9884854B2, “N-[(pyrimidinylamino)propanyl]-and N[(pyrazinylamino)proppanyl]arylcarboxamides” (Boehringer Ingelheim International GmbH, priority 2016, dated 2018).

What follows are molecules tested against T1, human orexin 2 receptor (Homo sapiens, UniProt O43614) (assay: Assay B: OX2R IP1 (in vitro OX2R potency)). Settings: 0.5 nM Orexin A concentration.
T1 construct: stably expressing the full-length human orexin 2 receptor and the aequorin photoprotein; expressed in transfected cells; host or cells: CHO-K1 (CHO-K1/hOx2), co-expressing aequorin
T1 sequence (O43614 1-444): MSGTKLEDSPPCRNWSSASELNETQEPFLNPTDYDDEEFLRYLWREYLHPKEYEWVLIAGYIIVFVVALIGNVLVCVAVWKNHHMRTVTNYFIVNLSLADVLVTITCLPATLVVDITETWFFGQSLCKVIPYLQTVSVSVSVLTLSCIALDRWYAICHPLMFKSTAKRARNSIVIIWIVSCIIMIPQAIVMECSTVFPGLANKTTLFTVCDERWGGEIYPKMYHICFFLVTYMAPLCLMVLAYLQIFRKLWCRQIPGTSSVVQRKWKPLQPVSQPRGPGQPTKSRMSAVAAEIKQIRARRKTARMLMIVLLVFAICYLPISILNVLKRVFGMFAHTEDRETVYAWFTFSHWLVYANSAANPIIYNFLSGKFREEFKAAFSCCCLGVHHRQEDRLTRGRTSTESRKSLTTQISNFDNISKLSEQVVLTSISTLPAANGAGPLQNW
Type: cell-based
Excerpt: Activation of the orexin receptors expressed in cell lines results in an increase in intracellular IP3 concentration. IP1, a downstream metabolite of IP3, accumulates in cells following receptor activation and is stable in the presence of LiCl. Using Homogeneous Time-Resolved Fluorescence technology with Lumi4-Tb cryptate (commercially available from Cisbio Bioassay.) and a suitable fluorescence plate reader. […] Chem. Genomics 2009, 3, 22-32. This technique is used to characterize pharmacological modification of the orexin receptors.
B. In Vitro Testing of OX2R Potency: OX2R IP1
IP1 measurements are performed in CHO-K1 cells stably expressing the full-length human orexin 2 receptor and the aequorin photoprotein. Cells are cultivated in Ham's nutrient mixture F12 medium with 10% fetal calf serum, in a 37° C., 95% humidity and 5% CO2 incubator. The CHO-K1/hOx2 cell mass is expanded to larger cell numbers. The cells are obtained as frozen cells in cryo-vials and stored until use at −150° C. The viability of the cells after thawing is >90%. In preparation for the assay, 24 hours before the assay, the cells are thawed at 37° C. and immediately diluted with cell culture medium. After centrifugation, the cell pellet is resuspended in medium and then distributed into the assay plates with a density of 5000 cells/25 μL per well. The plates are incubated for one hour at room temperature to reduce edge effects before they are incubated for 24 hours at 37° C./5% CO2. Compounds are prepared by a 8-point serial dilution in DMSO and a final dilution step into assay buffer (HBSS with 20 mM HEPES, 0.1% BSA and 50 mM LiCl, pH 7.4) to ensure a final DMSO concentration of 1% in the assay. On the day of the assay, cells in the plate are washed twice with 60 μL assay buffer (20 μL buffer remained in the wells after washing), followed by adding 5 μL per well of compounds diluted in assay buffer. After 15 minutes of incubation at room temperature 5 μL per well of Orexin A peptide (final concentration: 0.5 nM) dissolved in assay buffer is added to the assay plate. The assay plate is incubated for 60 minutes at 37° C. Then 5 μl per well of Anti-IP1-Cryptate Tb solution and 5 μl per well of IP1-d2 dilution are added to all well of the plate and the plate is incubated for a further 60 minutes light protected at room temperature. The emission at 615 nm and 665 nm (Excitation wavelength: 320 nm) are measured using an EnVision reader (PerkinElmer). The ratio between the emission at 665 nm and 615 is calculated by the reader.
8-point four parametric non-linear curve fitting and determination of IC50 values and Hill slopes is performed using a regular analysis software e.g. AssayExplorer (Accelrys). In order to establish an agonist concentration independent parameter, Kb values are calculated using the following equation: IC50/((2+(A/EC50)n)^1/n−1) (with A=concentration agonist, EC50=EC50 agonist, n=Hill slope agonist) (see P. Leff, I. G. Dougall, Trends Pharmacol. Sci. 1993, 14(4), 110-112).
Kb values from Assay A (OX1R) and Assay B (OX2R) can then provide a selectivity ratio which is independent of the agonist (Orexin A) concentration.

SMILES	Kb [nM]
CCN(C(=O)c1ccccc1-n1nccn1)[C@@H](C)CNc1ncc(C(F)(F)F)cn1 [Example 1]	19.4
CCN(C(=O)c1nc(C)ccc1-n1nccn1)[C@@H](C)CNc1ncc(C(F)(F)F)cn1 [Example 9]	32.9
CCN(C(=O)c1cnc(C)nc1-c1ccccc1)[C@@H](C)CNc1ncc(C(F)(F)F)cn1 [Example 17]	54
CCN(C(=O)c1cccc(F)c1-n1nccn1)[C@@H](C)CNc1ncc(C(F)(F)F)cn1 [Example 18]	18
